Data reported in patent US20210161997A1, “TREATING DISEASES VIA TARGETED MODULATION OF GENE SIGNALING NETWORKS” (Camp4 Therapeutics Corporation, priority 2018, published 2021).

What follows are molecules tested on UGT1A1 (assay: RNA-seq of UGT1A1 expression in compound-treated primary human hepatocytes).
Format: cell-based
Protocol: Human hepatocytes were obtained from two donors from Massachusetts General Hospital, namely MGH54 and MGH63, and one donor from Lonza, namely HUM4111B. Cryopreserved hepatocytes were cultured in plating media for 16 hours, transferred to maintenance media for 4 hours. Cultured on serum-free media for 2 hours, then a compound was added. The hepatocytes were maintained on the serum-free media for 16 hours prior to gene expression analysis. Primary human hepatocytes were stored in the vapor phase of a liquid nitrogen freezer (about −130° C.).
Human hepatocytes cultured as described above were plated in 24-well format, adding 375,000 cells per well in a volume of 500 ul plating medium. Four hours before treatment, cells were washed with PBS and the medium was changed to either: fresh maintenance medium (complete) or modified maintenance medium.
Compound stocks were prepared at 1000× final concentration and added in a 2-step dilution to the medium to reduce risk of a compound precipitating out of solution when added to the cells, and to ensure reasonable pipetting volumes. One at a time, each compound was first diluted 10-fold in warm (about 37° C.) modified maintenance medium (initial dilution=ID), mixed by vortexing, and the ID was diluted 100-fold into the cell culture (e.g. 5.1 ul into 1 well of a 24-well plate containing 0.5 mL medium). The plate was mixed by carefully swirling and after all wells were treated and returned to the incubator overnight. If desired, separate plates/wells were treated with vehicle-only controls and/or positive controls. If using multi-well plates, controls were included on each plate. After about 18 hours, cells were harvested for further analysis, e.g., ChIP-seq, RNA-seq, ATAC-seq, etc.
This protocol is a modified version of the following protocols: MagMAX mirVana Total RNA Isolation Kit User Guide (Applied Biosystems #MAN0011131 Rev B.0), NEBNext Poly(A) mRNA Magnetic Isolation Module (E7490), and NEBNext Ultra Directional RNA Library Prep Kit for Illumina (E7420) (New England Biosystems #E74901).
The MagMAX mirVana kit instructions (the section titled “Isolate RNA from cells” on pages 14-17) were used for isolation of total RNA from cells in culture. Two hundred μl of Lysis Binding Mix was used per well of the multiwell plate containing adherent cells (usually a 24-well plate).
For mRNA isolation and library prep, the NEBNext Poly(A) mRNA Magnetic Isolation Module and Directional Prep kit was used. RNA isolated from cells above was quantified, and prepared in […] of each sample in 50 μl of nuclease-free water. This protocol may be run in microfuge tubes or in a 96-well plate.
Standard QC were applied (read integrity, mapping statistics, library complexity, fragment bias) to remove unsatisfactory samples. […] Log 2 fold change and significance values were computed using PME count data (with replicates explicitly modeled versus pan-experiment controls), median ratio normalized, using maximum likelihood estimation rather than maximum a posteriori, and disabling the use of Cook's distance cutoff when determining acceptable adjusted p-values. […] RNA-seq signals were also normalized by read depth and visualized using the UCSC browser.
To identify small molecules that modulate target gene expression, primary human hepatocytes were prepared as a monoculture, and at least one small molecule compound was applied to the cells.
RNA-seq was performed to determine the effects of the compounds on the expression of the target genes in hepatocytes. Fold change was calculated by dividing the level of expression in the cell system that had been perturbed by the level of expression in an unperturbed system. Changes in expression having a p-value ≤0.05 were considered significant.
Significance was defined as an FPKM ≥1, a log 2(fold change) ≥0.5, and a q-value of ≤0.05 for all targets except for CPOX.

Compound	UGT1A1 Fold Change (Log2)
CNC(=O)c1ccc(N2C(=S)N(c3cnc(C#N)c(C(F)(F)F)c3)C(=O)C23CCC3)cc1F [ARN-509]	1.16 Log2
Cc1cc(Nc2nc(N[C@@H](C)c3ncc(F)cn3)ncc2Cl)[nH]n1 [AZD1480]	0.93 Log2
C[C@@H]1COCCN1c1cc(C2([S@](C)(=N)=O)CC2)nc(-c2cc[nH]c3nccc2-3)n1 [AZD6738]	1.03 Log2
O=C1Nc2cc(Br)ccc2/C1=C1/Nc2ccccc2/C1=N\O [BIO]	0.62 Log2
Cc1ccc(-n2nc(C(C)(C)C)cc2NC(=O)Nc2ccc(OCCN3CCOCC3)c3ccccc23)cc1 [BIRB 796]	1.04 Log2
C[C@@]1(C(=O)Nc2ccc(F)nc2)CCCN1c1nc(Nc2cc(C3CC3)n[nH]2)c2cccn2n1 [BMS-754807]	1.33 Log2
C=C(c1ccc(C(=O)O)cc1)c1cc2c(cc1C)C(C)(C)CCC2(C)C [Bexarotene]	1.29 Log2
C[C@H]1COC2=C1C(=O)C(=O)c1c2ccc2c1CCCC2(C)C [Cryptotanshinone]	0.93 Log2
Cc1nc(Nc2ncc(C(=O)Nc3c(C)cccc3Cl)s2)cc(N2CCN(CCO)CC2)n1 [Dasatinib]	0.67 Log2
CC[C@@](C)(Nc1ccnc(-c2c[nH]c3ncccc23)n1)C(=O)NCC(F)(F)F [Decernotinib]	0.58 Log2
c1cc(-c2cnn3cc(-c4ccc(OCCN5CCCCC5)cc4)cnc23)ccn1 [Dorsomorphin]	0.57 Log2
C=C1/C(=C\C=C2/CCC[C@]3(C)[C@@H]([C@H](C)/C=C/C=C/C(O)(CC)CC)CC[C@@H]23)C[C@@H](O)C[C@@H]1O [EB1089]	0.88 Log2
Cc1cc(C)c2c(c1)[C@@H](N(Cc1cc(C(F)(F)F)cc(C(F)(F)F)c1)c1nnn(C)n1)CCCN2C[C@H]1CC[C@H](C(=O)O)CC1 [Evacetrapib]	0.78 Log2
CCn1c(=O)c(-c2ccc(-c3cncs3)cc2Cl)cc2cnc(Nc3ccc(N4CCN(C)CC4)cc3)nc21 [FRAX597]	0.61 Log2
OCCn1cc(-c2ccc3c(c2)CC/C3=N\O)c(-c2ccncc2)n1 [GDC-0879]	0.55 Log2
CC(C)c1onc(-c2c(Cl)cccc2Cl)c1COc1ccc(/C=C/c2cccc(C(=O)O)c2)c(Cl)c1 [GW4064]	0.92 Log2
CCC1=C(C)CN(C(=O)NCCc2ccc(S(=O)(=O)NC(=O)N[C@H]3CC[C@H](C)CC3)cc2)C1=O [Glimepiride]	0.96 Log2
Cc1ccc2nc(NC(=O)CSc3nc4c(c(=O)n3-c3ccccc3)SCC4)sc2c1 [IWP-2]	0.64 Log2
Cn1cc(-c2ccc3nnc(C(F)(F)c4ccc5ncccc5c4)n3n2)cn1 [JNJ-38877605]	1.09 Log2
O=C(O)c1ccccc1C(=O)Nc1ccc(-c2ccccc2)cc1 [Kartogenin]	2.24 Log2
CC(=O)c1cccc(-c2cccc(-c3ccn(CCN4CCOCC4)n3)c2)c1 [LRH-1 antagonist]	0.91 Log2
Cn1cc(-c2ccc(F)c(C(F)(F)F)c2)nc1C1CCN(c2ncnc3[nH]ncc23)CC1 [LY2584702]	0.76 Log2
Cc1ccc(C(=O)OCc2ccc([C@@H](CN)C(=O)Nc3ccc4cnccc4c3)cc2)c(C)c1 [Netarsudil]	0.85 Log2
COc1ccc2[nH]c([S+]([O-])Cc3ncc(C)c(OC)c3C)nc2c1 (stereo not shown) [Omeprazole]	1.09 Log2
COc1cc2c(cc1OC)-c1c(OC)c(OC)cc3ccnc(c13)C2=O [Oxoglaucine]	0.83 Log2
CNC(=O)c1ccccc1Nc1cc(Nc2ccc(N3CCOCC3)cc2OC)ncc1C(F)(F)F [PND-1186]	0.90 Log2
CC(C)(C(=O)NCC(F)(F)C(F)(F)F)C(=O)N[C@@H]1C(=O)Nc2ccccc2-c2ccccc21 [RO4929097]	1.06 Log2
CCCn1c(=O)c2[nH]c(C34CC5CC(CC3C5)C4)nc2n(CCC)c1=O [Rolofylline (KW-3902), Rolofylline]	0.66 Log2
